Data set [1] in a line: Solubility measurement (DMSO solution method), McIlvaine buffer pH 4.5 or 6.8. The class given is physicochemical. Particulars: aqueous buffer, kinetic from dmso stock, DMSO stock diluted to 250 μM, 24 h shaking at ambient temperature. Summed up:
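DMSO stock diluted into McIlvaine buffer, pH 4.5 or 6.8, to 250 µM final, shaken 24 h at ambient temperature. Precipitate removed by filtration; filtrate quantified by LC-UV against a fully dissolved reference in acetonitrile/water 1:1.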

In data set [2] the test system is KRAS G12D-dependent Ba/F3 cells. The data set is described as follows: Ba/F3 proliferation assay, KRAS G12D. To be noted: Mus musculus, BaF3, 72 h, AlamarBlue. The class given is cell-based. The essentials:
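Ba/F3 cells retrovirally transduced with KRAS G12 mutants, puromycin-selected and grown without IL-3, so proliferation depends on the mutant KRAS. Compounds tested in technical duplicates; viability read by AlamarBlue fluorescence, with curve fitting for potency.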
(In general: Resazurin is reduced to fluorescent resorufin, in cell work by metabolically active cells.)

In data set [3] the test system is AsPC-1 cells. The experiment in a line: AsPC-1 CTG proliferation assay (120 h) (pancreatic cancer, G12D). The class given is cell-based. Particulars: Homo sapiens, ASPC1. The essentials:
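AsPC-1 cells (KRAS G12D), 2000/well in RPMI with 10% FCS, seeded overnight, then treated with compound for 120 h at 37 °C. Viability by CellTiter-Glo luminescence as percent of DMSO control. IC50 from a four-parameter non-linear fit.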

The test system of data set [4] is LOVO cells. The data set is described as follows: LOVO CTG proliferation assay (120 h) (CRC, G13D). The class given is cell-based. Particulars: Homo sapiens, CTG 120 h. The essentials: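 LOVO cells, 1000 per well in DMEM + 10% FCS, were plated overnight and then dosed with compound from DMSO stock. After 120 h at 37 °C, viability was read by CellTiter-Glo luminescence as a percentage of DMSO controls. IC50 was derived by four-parameter non-linear regression.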

Setting [5] is: McIlvaine buffer pH 4.5, read-out: solubility pH 4.5.
Where [6] appears, read: McIlvaine buffer pH 6.8, read-out: solubility pH 6.8.

Converted amounts (≈) assume the structure as drawn. Read-outs that look alike come from different tables or passages of the source. Where only a bound is given, the exact number is not on record here.

For `C[C@H]1CN(C)CCCN1c1nc(-c2onc3c2CCC[C@@]32CCCc3sc(N)c(C#N)c32)cc(N2CCN(C)C3(CC3)C2)n1` [I-42], the solubility (commonly the concentration that dissolves in the medium under given conditions) at 24 h is over 141 µg/mL in data set [1] (setting [5]) and 99 µg/mL (≈ 161 µM) in data set [1] (setting [6]). Moreover, in data set [2], the half-maximal inhibitory concentration (IC50) – broadly, the point on the concentration scale where inhibition reaches its midpoint – is 440 nM.

`C[C@H](Oc1cc(N2CCN(C)C3(CC3)C2)nc(-c2onc3c2CCC[C@@]32CCCc3sc(N)c(C#N)c32)n1)[C@@H]1C[C@@H](F)CN1C` [I-39]: the solubility at 24 h is over 147 µg/mL in data set [1] (setting [5]) and under 1 µg/mL in data set [1] (setting [6]). The half-maximal inhibitory concentration (IC50) stood at 34 nM in data set [2], 149 nM in data set [3] and 354 nM in data set [4].

For `C[C@H](Oc1cc(-n2ccc(C(=O)N(C)C3COC3)n2)nc(-c2onc3c2CCC[C@@]32CCCc3sc(N)c(C#N)c32)n1)[C@@H]1CCCN1C` [I-60], the solubility at 24 h in data set [1] (setting [5]) was over 158 µg/mL; in data set [1] (setting [6]) it was over 161 µg/mL. Besides, the 50% inhibitory concentration (IC50) in data set [2] amounted to 22 nM; in data set [3], 779 nM; in data set [4], 49 nM.

Turning to `C[C@H](Oc1nc(-c2onc3c2CCC[C@@]32CCCc3sc(N)c(C#N)c32)cc(N2CCNC3(CC3)C2)n1)[C@@H]1CCCN1C` [I-2], the solubility at 24 h in data set [1] (setting [5]) is over 142 µg/mL; in data set [1] (setting [6]), over 131 µg/mL. Further, in data set [2], half-maximal inhibition (IC50) was put at 124 nM.

Consider `C[C@@H]1CN(c2cc(O[C@@H](C)[C@@H]3C[C@@H](F)CN3C)nc(-c3noc4c3CCC[C@@]43CCCc4sc(N)c(C#N)c43)n2)CC2(CC2)N1` [II-17], for which the solubility at 24 h in data set [1] (setting [5]) was over 147 µg/mL; in data set [1] (setting [6]), 20 µg/mL (≈ 31.6 µM). The IC50 was 39 nM in data set [2], 251 nM in data set [3] and 186 nM in data set [4].

Consider `[2H]C([2H])([2H])N1C[C@H](F)C[C@H]1[C@H](C)Oc1cc(N2CCN(C)C3(CC3)C2)nc(-c2noc3c2CCC[C@@]32CCCc3sc(N)c(C#N)c32)n1` [II-209], for which the values for the solubility at 24 h in data set [1] (setting [5]) and in data set [1] (setting [6]) were over 150 µg/mL and under 1 µg/mL, respectively. Besides, the IC50 in data set [2] stood at 18 nM; in data set [3], 59 nM; in data set [4] it was 493 nM.

Turning to `C[C@H](Oc1cc(-n2ccc(C(=O)N[C@H]3CCOC3)n2)nc(-c2onc3c2CCC[C@@]32CCCc3sc(N)c(C#N)c32)n1)[C@@H]1CCCN1C` [I-57], the 50% inhibitory concentration (IC50) in data set [2] came out at 8 nM; in data set [3] it was 278 nM; in data set [4] it was 8 nM.

With `[2H]C([2H])([2H])N1C[C@H](F)C[C@H]1[C@H](C)Oc1cc(N2CCNC3(CC3)C2)nc(-c2noc3c2CCC[C@@]32CCCc3sc(N)c(C#N)c32)n1` [II-208], the values for the concentration for half-maximal inhibition (IC50) in data set [2], in data set [3] and in data set [4] were 3 nM, 15 nM and 334 nM, respectively.

For the compound `CO[C@@H]1C[C@@H]([C@H](C)Oc2cc(N3CCN(C)C4(CC4)C3)nc(-c3onc4c3CCC[C@@]43CCCc4sc(N)c(C#N)c43)n2)N(C)C1` [I-50], the results for the solubility at 24 h in data set [1] (setting [5]) and in data set [1] (setting [6]) were over 139 µg/mL and 95 µg/mL (≈ 147 µM), respectively. The half-maximal inhibitory concentration (IC50) in data set [2] came out at 41 nM; in data set [3] it was 115 nM; in data set [4], 439 nM.

In the case of `COCCNC(=O)c1ccn(-c2cc(O[C@@H](C)[C@@H]3[C@@H](OC)CCN3C)nc(-c3onc4c3CCC[C@@]43CCCc4sc(N)c(C#N)c43)n2)n1` [I-55], the solubility at 24 h in data set [1] (setting [5]) was over 162 µg/mL; in data set [1] (setting [6]) it was 5 µg/mL (≈ 7.27 µM). In addition, the concentration for half-maximal inhibition (IC50) in data set [2] came to 12 nM; in data set [3], 565 nM; in data set [4], 39 nM.

Turning to `C[C@H](O)Cn1ccc(-c2cc(O[C@@H](C)[C@@H]3CCCN3C)nc(-c3onc4c3CCC[C@@]43CCCc4sc(N)c(C#N)c43)n2)n1` [I-31], the solubility at 24 h is over 128 µg/mL in data set [1] (setting [5]) and 118 µg/mL (≈ 192 µM) in data set [1] (setting [6]). Further, 43 nM corresponded to half-maximal inhibition in data set [2] (IC50).

As for `C[C@H](Oc1cc(-n2ccc(C(=O)N[C@@H]3CCOC3)n2)nc(-c2onc3c2CCC[C@@]32CCCc3sc(N)c(C#N)c32)n1)[C@@H]1CCCN1C` [I-56], the solubility at 24 h in data set [1] (setting [5]) was 108 µg/mL (≈ 161 µM); in data set [1] (setting [6]), 97 µg/mL (≈ 145 µM). The half-maximal inhibitory concentration (IC50) in data set [2] stood at 16 nM; in data set [3] it was 695 nM; in data set [4] it was 23 nM.

Take `C[C@H](Oc1cc(N2CCNC3(CC3)C2)nc(-c2onc3c2CCC[C@@]32CCCc3sc(N)c(C#N)c32)n1)[C@@H]1C[C@@H](F)CN1C` [I-45]: the solubility at 24 h is over 148 µg/mL in data set [1] (setting [5]) and over 86 µg/mL in data set [1] (setting [6]). The half-maximal inhibitory concentration (IC50) was determined as 11 nM in data set [2], 32 nM in data set [3] and 315 nM in data set [4].

Take `CO[C@H]1CCN(C)[C@@H]1[C@H](C)Oc1cc(-n2ccc(C(=O)N[C@@H]3CCOC3)n2)nc(-c2onc3c2CCC[C@@]32CCCc3sc(N)c(C#N)c32)n1` [I-53]: the solubility at 24 h was over 152 µg/mL in data set [1] (setting [5]) and 5 µg/mL (≈ 7.14 µM) in data set [1] (setting [6]). Besides, the figures for the half-inhibitory concentration (IC50) in data set [2], in data set [3] and in data set [4] were 12 nM, 414 nM and 29 nM, respectively.

Consider `CO[C@H]1CCN(C)[C@@H]1[C@H](C)Oc1cc(-n2ccc(CC(=O)NC(C)C)n2)nc(-c2onc3c2CCC[C@@]32CCCc3sc(N)c(C#N)c32)n1` [I-48], for which the values for the solubility at 24 h in data set [1] (setting [5]) and in data set [1] (setting [6]) were over 161 µg/mL and 7 µg/mL (≈ 10.2 µM), respectively. For the same compound, the IC50 was 24 nM in data set [2], 384 nM in data set [3] and 23 nM in data set [4].

On to `CO[C@H]1CCN(C)[C@@H]1[C@H](C)Oc1cc(N2CCNC3(CC3)C2)nc(-c2onc3c2CCC[C@@]32CCCc3sc(N)c(C#N)c32)n1` [I-49], for which the solubility at 24 h was over 154 µg/mL in data set [1] (setting [5]) and 43 µg/mL (≈ 68.2 µM) in data set [1] (setting [6]). Also, the IC50 in data set [2] came to 3 nM; in data set [3], 20 nM; in data set [4], 223 nM.

Turning to `C[C@H](Oc1nc(-c2onc3c2CCC[C@@]32CCCc3sc(N)c(C#N)c32)cc(N2CCN(C)C3(CC3)C2)n1)[C@@H]1CCCN1C` [I-40], the IC50 in data set [2] stood at 243 nM.

`C[C@H](Oc1cc(N2CCN(C)C3(COC3)C2)nc(-c2onc3c2CCC[C@@]32CCCc3sc(N)c(C#N)c32)n1)[C@@H]1C[C@@H](F)CN1C` [I-37]: the figures for the solubility at 24 h in data set [1] (setting [5]) and in data set [1] (setting [6]) were over 149 µg/mL and 17 µg/mL (≈ 26.2 µM), respectively. The IC50 turned out to be 78 nM in data set [2], 609 nM in data set [3] and 165 nM in data set [4].

Regarding `COCCNC(=O)c1ccn(-c2cc(O[C@@H](C)[C@@H]3CCCN3C)nc(-c3onc4c3CCC[C@@]43CCCc4sc(N)c(C#N)c43)n2)n1` [I-58], the solubility at 24 h is over 128 µg/mL in data set [1] (setting [5]) and 94 µg/mL (≈ 143 µM) in data set [1] (setting [6]). Also, the results for the 50% inhibitory concentration (IC50) in data set [2], in data set [3] and in data set [4] were 11 nM, 696 nM and 29 nM, respectively.

Consider `C[C@H](NC(=O)c1ccn(-c2cc(O[C@@H](C)[C@@H]3CCCN3C)nc(-c3onc4c3CCC[C@@]43CCCc4sc(N)c(C#N)c43)n2)n1)c1ccccn1` [I-59], for which the solubility at 24 h in data set [1] (setting [5]) was over 150 µg/mL; in data set [1] (setting [6]), 15 µg/mL (≈ 21.3 µM). Moreover, the IC50 in data set [2] is 13 nM; in data set [3], 444 nM; in data set [4], 22 nM.

Regarding `CO[C@H]1CCN(C)[C@@H]1[C@H](C)Oc1cc(-n2ccc(C(=O)N[C@H]3CCOC3)n2)nc(-c2onc3c2CCC[C@@]32CCCc3sc(N)c(C#N)c32)n1` [I-54], the figures for the solubility at 24 h in data set [1] (setting [5]) and in data set [1] (setting [6]) were 16 µg/mL (≈ 22.9 µM) and under 1 µg/mL, respectively. Moreover, the IC50 in data set [2] is 7 nM; in data set [3], 266 nM; in data set [4], 32 nM.

For the compound `C[C@H](Oc1cc(N2C[C@H](C)NC3(CC3)C2)nc(-c2noc3c2CCC[C@@]32CCCc3sc(N)c(C#N)c32)n1)[C@@H]1C[C@@H](F)CN1C` [II-18], the solubility at 24 h in data set [1] (setting [5]) is over 146 µg/mL; in data set [1] (setting [6]), 8 µg/mL (≈ 12.6 µM). For the same compound, the half-maximal inhibitory concentration (IC50) in data set [2] came to 20 nM; in data set [3] it was 45 nM; in data set [4], 49 nM.

For the origin of these results see patent US20240174690A1, “ANNULATED 2-AMINO-3-CYANO THIOPHENES AND DERIVATIVES FOR THE TREATMENT OF CANCER” (BOEHRINGER INGELHEIM INTERNATIONAL GMBH, priority 2021, published 2024).
